The text below walks through data of patent US20100048604A1, “Ligands for Aldoketoreductases” (priority 2004, published 2010).

One series has as its system HepG2 cell fractions. The series is described as follows: Metabolism of phenyl ketone 5c in HepG2 cell fractions. The format is in vitro ADME, human. To be noted: 10 μM 5c. How it is done: FIG. 17. Reactivity of HepG2 cell fractions with 5c. Assays were performed in 50 mM Tris-HCl buffer containing 1 mM NADPH, 10 μM 5c and 80 μg protein/mL, incubated for 60 minutes. Legend: (+) without flufenamic acid; (−) with 100 μM flufenamic acid; HepG2=hepatoma cell line.
Selectivity of Phenyl Ketone Probe 5c in Cellular Lysates: The selectivity of phenyl ketone probe 5c in human hepatoma cells (HepG2), which are known to express all four AKR1C isozymes in the cytoplasm, was tested. […] An issue may be non-selective reduction of probes with microsomes, which are organelles enriched with redox enzymes. Following one hour incubation of probe 5c with both cytosolic and microsomal fractions prepared from HepG2 cells, the resulting mixtures were analyzed fluorimetrically. […] Moreover, reduction by the cytoplasmic extract was suppressed by flufenamic acid, a known inhibitor of the AKR1C isozymes (Penning, T. M.; Talalay, P. Proc Natl Acad Sci USA 1983, 4504-4508).
HepG2 cells were obtained from and grown in the Penning laboratory (University of Pennsylvania School of Medicine). Cells were maintained at 37° C. and 5% CO2 containing Eagle's minimal essential medium supplemented with 100 U/mL penicillin, 100 μg/mL streptomycin, 2 mM L-glutamine, and 10 % heat-inactivated fetal bovine serum.
To measure metabolism of 5c in HepG2 cell fractions, the cells were harvested and fractionized as follows. HepG2 cells were grown to confluency on eight 15×100 mm dishes, whereupon 500 μL of ice cold Tris-HCl-sucrose buffer (50 mM Tris-HCl at pH 7.4, 250 mM sucrose, 1 mM EDTA, and 1 mM 2-mercaptoethanol) was added to each dish. Cells were scratched off and taken up directly into an ice cold potter. These cells were then homogenized and sonicated (10 one-second 10 W bursts, four times on ice). […]
Protein concentrations for whole or fractionized HepG2 cells were determined by standard Bradford assays (Bradford, M. M.; Anal. Biochem. 1976, 72, 248). […] Reactions were initiated with 80 μg of protein per 1 mL assay and monitored fluorimetrically for up to 2 hours. […]

For the next series, the target named is T1, AKR1C3 (Homo sapiens, UniProt P42330).
T1 construct: gift of Professor Trevor Penning (University of Pennsylvania School of Medicine)
T1 sequence (P42330 1-323): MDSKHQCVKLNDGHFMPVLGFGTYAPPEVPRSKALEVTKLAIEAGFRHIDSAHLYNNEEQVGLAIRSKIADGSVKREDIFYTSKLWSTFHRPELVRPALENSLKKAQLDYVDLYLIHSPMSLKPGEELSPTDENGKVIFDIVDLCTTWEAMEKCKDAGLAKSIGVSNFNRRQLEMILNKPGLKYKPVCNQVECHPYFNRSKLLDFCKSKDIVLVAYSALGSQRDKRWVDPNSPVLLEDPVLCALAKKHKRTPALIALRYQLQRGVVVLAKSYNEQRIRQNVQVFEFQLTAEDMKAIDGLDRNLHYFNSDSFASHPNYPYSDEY
The series is described as follows: Steady state kinetic parameters of fluorogenic substrates with purified AKR1C isozymes. Type of series: biochemical. As to the method:
The initial reaction rates were used to derive standard kinetic parameters (kcat and Km, Materials and Methods).
Substrate tolerance of AKR1Cs: Isozyme Activity with 5a-5i: Activity of the second generation of fluorogenic substrates with the AKR1C isozymes was determined as follows. […] After mixing the aqueous components thoroughly, 20 μL of acetonitrile was added as a cosolvent and mixed well. […] 4 μL of undiluted AKR1C (provided generously by the Penning lab at concentrations of 2.5 mg/mL) were then added to the cuvette for a total of 10 μg purified enzyme in the 1 mL assay volume. Fluorescence arising from the respective alcohol reduction product was then monitored over the course of 5-10 minutes.
Binding constant and catalytic rates (Km and kcat) of the second generation of fluorogenic substrates was determined as follows. […] After mixing the aqueous components thoroughly, 20 μL of acetonitrile was added as a cosolvent and mixed well. […] To initiate the reduction, 2 or 4 μL of diluted AKR1C (1:2 to 1:100, depending on the kinetics of a particular isozyme's reduction of a substrate) was then added to the cuvette. Fluorescence arising from the respective alcohol reduction product was then monitored over the course of 3 minutes (Excitation and emission band pass slits both at 4 nm, lamp 700 V, λexc 410 nm, λem 510).
initial rate=[nst×(Ft−F0)/(Fst)]/t (1)
where Ft and F0 represent the fluorescence at times t and 0 minutes, nst is the nanomoles of product in a known concentration of product, and Fst is the fluorescence resulting from nst of product. […] Reported enzymatic kinetic parameters are the average of three independent determinations from three different preparations of substrate and enzyme.

A short description of series [1]: Solubility in DMSO, methanol and acetonitrile. Type of series: physicochemical. To be noted: methanol, acetonitrile, organic solvent or mixture, read-out: solubility class (asterisk) in DMSO, methanol, and acetonitrile.
Series [2] addresses T2, Pseudomonas testosteroni 3α-hydroxysteroid dehydrogenase (Comamonas testosteroni, UniProt P80702).
T2 construct: purchased Sigma (St. Louis, Mo.) Lot Number 053K8624 (catalogue number not given)
The series is described as follows: Enzymatic screening of probes 1-7 against a panel of oxidoreductases. Type of series: biochemical. The conditions noted are these: 12 hour incubation, 30-50 μM substrate, pH 7, 250 μM NAD(P)H. As to the method: (§1) FIG. 4. Screening of probes 1-7 against a panel of oxidoreductases Percentage fluorescence increase after 12 hour incubation of 30-50 μM substrate, 100 mM phosphate buffer (pH 7), 250 μM NAD(P)H, and 100 nM enzyme. Substrates 1, 2, 3, and 4 monitored at λexc=340 nm, λem=440 nm. Substrates 5, 6, and 7 monitored at λexc=440 nm, λem=510 nm. 3HSD, 3α-hydroxysteroid dehydrogenase (PT, Pseudomonas testosteroni), HLAD, horse liver alcohol dehydrogenase, TBAD, Thermoanaerobium brockii alcohol dehydrogenase, BS 12HSD, Bacillus sp. 12α-hydroxysteroid dehydrogenase, ABAD, amyloid-β binding alcohol dehydrogenase (human), GDH, glycerol dehydrogenase, YADH, yeast alcohol dehydrogenase, LDH, lactate dehydrogenase.
(§2) Probes 1-7 (see FIG. 3) were subsequently tested against a collection of dehydrogenases in the presence of NAD(P)H; the extent of reduction was assessed by the measurement of fluorescence intensity at the emission maximum of each probe (FIG. 4). This assay included enzymes from two major oxidoreductase superfamilies, the short chain alcohol dehydrogenases (SDR) and the aldo-keto reductases (AKR), ranging from bacterial to mammalian and human enzymes.
(§3) Horse Liver alcohol dehydrogenase (Lot Number 51K7520), Thermoanaerobium brockii NADP^+ dependent alcohol dehydrogenase (Lot Number 033K4093), Pseudomonas testosteroni 3α-hydroxysteroid dehydrogenase (Lot Number 053K8624), and Bacillus sphaericus 12α-hydroxysteroid dehydrogenase (Lot Number 70K16621) were purchased from Sigma (St. Louis, Mo.). Yeast alcohol dehydrogenase (Lot Number 93122920), glycerol dehydrogenase (Lot Number 92110122), (D)-lactate dehydrogenase (Lot Number 92419236), (L)-lactate dehydrogenase (Lot Number 92801821), NAD^+, NADP^+, NADH, and NADPH were purchased from Roche. Enzyme activity was confirmed by compliance to supplier's quality control assays prior to usage. Rat and human 3α-hydroxysteroid dehydrogenases were provided by Professor Trevor Penning (University of Pennsylvania School of Medicine) and human amyloid-β peptide binding alcohol dehydrogenase was supplied by Professor Shi Du Yan (Columbia University School for Physicians and Surgeons).
(§4) Enzymatic assays were performed in triplicate on selected fluorogenic substrates according to the following protocol. To each well of a FALCON 96-well black flat bottom plate was added (1) 40 μL of 500 mM potassium phosphate buffer pH 7.0, (2) 113 μL of double deionized water, (3) 25 μL of 2 mM NADH (except for Pseudomonas testosteroni 3α-hydroxysteroid dehydrogenase, rat 3α-hydroxysteroid dehydrogenase, and Thermoanaerobium brockii NADP^+ dependent alcohol dehydrogenase, in which cases 2 mM of NADPH was used), (4) 2 μL of a 3-5 mM solution of substrate in DMSO, and (5) 20 μL of a 40-50 μg/mL solution of enzyme. Reaction volumes were mixed thoroughly after addition of cofactor, substrate, and enzyme and allowed to react 12 hours at 25° C. Scanning of the 96-well plate was performed by the MicroMax 384 connected to a Jobin Yvon Fluorolog through F-3000 fiber optic cables.
(§5) Initial Screening with Fluorogenic Substrates: Screening of the first fluorogenic substrates for enzymatic activity has been described above. In short, 200 μL enzymatic assay volumes containing 100 mM potassium phosphate buffer (pH 7), 250 μM NAD(P)H cofactor, and 30-50 μM of ketones (1-7) were incubated for 12 hours on a black FALCON 96-well plate. Formation of the alcohol reduction product was determined by reading the fluorescence arising from excitation at the corresponding alcohol at either 340 nm (27-30) or 440 nm (31-33).

In series [3] the target is T3, rat 3α-hydroxysteroid dehydrogenase (Rattus norvegicus, UniProt P23457).
T3 construct: gift of Professor Trevor Penning (University of Pennsylvania School of Medicine)
T3 sequence (P23457 1-322): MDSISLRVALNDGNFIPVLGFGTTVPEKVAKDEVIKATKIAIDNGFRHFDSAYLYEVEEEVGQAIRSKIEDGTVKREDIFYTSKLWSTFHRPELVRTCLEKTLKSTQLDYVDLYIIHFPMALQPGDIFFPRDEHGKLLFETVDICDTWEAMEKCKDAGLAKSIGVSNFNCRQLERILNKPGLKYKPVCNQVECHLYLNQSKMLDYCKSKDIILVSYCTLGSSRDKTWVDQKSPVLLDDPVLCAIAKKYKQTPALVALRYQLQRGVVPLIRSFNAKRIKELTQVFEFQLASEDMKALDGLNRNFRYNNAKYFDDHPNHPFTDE
Described as above. The format is biochemical. To be noted: 12 hour incubation, 30-50 μM substrate, pH 7, 250 μM NAD(P)H. As to the method: as §1, §2, §3, §4, §5

[4] abbreviates: isozyme 1C3, potassium phosphate buffer pH 6, NADPH, fluorimetric.

T2 sequence (P80702 whole entry): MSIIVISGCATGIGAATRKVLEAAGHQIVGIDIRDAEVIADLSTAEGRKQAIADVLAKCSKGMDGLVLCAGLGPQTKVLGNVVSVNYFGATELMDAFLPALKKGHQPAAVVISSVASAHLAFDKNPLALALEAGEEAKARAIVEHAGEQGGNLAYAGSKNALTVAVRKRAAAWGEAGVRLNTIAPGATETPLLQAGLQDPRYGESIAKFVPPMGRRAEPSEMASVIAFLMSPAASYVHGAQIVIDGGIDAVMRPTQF

For `O=C(c1ccccc1)c1cc(=O)oc2c3c4c(cc12)CCCN4CCC3` [5c, 8-Benzoyl-2,3,5,6-tetrahydro-1H,4H-11-oxa-3a-aza-benzo[de]anthracen-10-one], the “reduction in cytoplasmic (cytosolic) fraction” value with HepG2 cell fractions (HepG2 cytosolic fraction, 1 mM NADPH, 80 μg protein/mL, one hour incubation) is reported as “enzymatic reduction occurred”. For the same compound, the “stability / reduction in microsomal fraction” value in the series with HepG2 cell fractions (HepG2 microsomes, 1 mM NADPH, 80 μg protein/mL, one hour incubation) is recorded as “stable in the presence of microsomes”. The Michaelis-Menten constant (Km) on AKR1C3 (AKR1C3, value of the text) amounted to 0.051 µM. On AKR1C3 (setting [4]), the Kcat is 0.0988 s⁻¹ and the Km stood at 0.05 µM.

Take `COc1ccc2cc(-c3ccc(C(C)=O)cc3)c(=O)oc2c1` [VB11]: the solubility in series [1] was more than 1000 µM.

Consider `CC(=O)c1ccc(-c2cc3cc4c5c(c3oc2=O)CCCN5CCC4)cc1` [VB35], for which the solubility in series [1] is more than 1000 µM.

For the compound `CC(=O)c1ccc(-c2cc3cc4c5c(c3oc2=O)CCCN5CCC4)cc1` [compound 6, 9-(4-Acetyl-phenyl)-2,3,5,6-tetrahydro-1H,4H-11-oxa-3a-aza-benzo[de]anthracen-10-one], the “reduction of probe (fluorescence increase)” value in series [2] and in series [3] was “good conversion” each time.

Turning to `O=C(O)c1ccccc1Nc1cccc(C(F)(F)F)c1` [flufenamic acid, reference compound], in the series on HepG2 cell fractions (100 μM flufenamic acid, HepG2 cytoplasmic extract), the “effect on reduction of 5c by the cytoplasmic extract” value was “suppressed”.
